The record followed here is US8987486B2, “Trans-2-decenoic acid derivative and pharmaceutical agent containing the same” (Nagoya Industrial Science Research Institute, priority 2010, dated 2015).

Molecules are shown by their SMILES.

What all share (type): in vivo
In test [1] the test system is chronic mild stress-induced depressive model mice. Description: Spontaneous alternation behavior test (Y-maze test) in chronic mild stress-induced depressive model mice. The procedure:
The same operation as in the above Test Example 7 was conducted to prepare chronic mild stress-induced depressive model mice (n=8 to 12). During that time, the compound of the present invention dissolved in PBS or in a PBS solvent containing DMSO, etc. was orally administered once daily for three weeks and, after that, evaluation for learning and memorizing behaviors was conducted by means of a spontaneous alternation behavior test (Y-maze test). Thus, an animal was placed at the front end of any arm in the Y-maze and allowed to freely walk in the maze for ten minutes, the arms into which the animal entered were successively recorded and the entry numbers of the animal into each arm within a measuring time (total arm entries) and the combined entry numbers into continuously different three arms (alternating behavior numbers) were checked. The alternating behavior rate (%) was calculated by the following expression and the spontaneous alternating behavior was evaluated as an index of short-term memory. Incidentally, the test of significance was conducted by a one-way ANOVA, Tukey's Multiple Comparison Test. Alternating behavior rate (%)=(Alternating behavior numbers)/(Total arm entries−2)×100

Test [2] deals with Male ddY strain mice loaded with forced swimming stress. Description: Suppressive effect for depressive symptom as a result of stress loading (forced swimming). The settings on record: 100 μg/kg body weight intraperitoneally every day, thirteenth day after stress loading, versus PBS control. As to the method:
Male ddY strain mice of seven weeks age were loaded, as the stress, with forced swimming of 6 minutes every day for 2 weeks and the evaluation of suppressive effect for depression symptom was conducted. Thus, as from the initiation of loading the stress, the compound 1 dissolved in 0.1% DMSO was intraperitoneally administered every day in a dose of 100 μg/kg body weight and the immobility time of the mice upon the forced swimming was measured (n=5). As a control, a phosphate-buffered physiological saline (PBS) was intraperitoneally administered to the mice during two weeks and the immobility time was measured (n=4). The cases to which no stress was loaded were also administered with each of the compound 1 and the phosphate buffered saline (PBS) as same as in the cases to which the stress was loaded. Incidentally the test of significance was conducted by means of a two-way ANOVA, Bonferroni test.

Test [3] has as its system Spinal cord injury model rats. Description: Repairing action for the spinal cord injury, BBB scale (complete cut at T10). As to conditions: 100 μg/kg body weight intraperitoneally once daily, after six weeks, n=6. The procedure:
Spinal cord injury model rats were prepared and the repairing action of the compound 1 for the spinal cord injury was investigated. The compound 1 was dissolved in a phosphate buffered saline (PBS) and intraperitoneally administered to each spinal cord injury model rat once daily in a dose of 100 μg/kg body weight. As a control, PBS was similarly administered.
Female Wistar rats of seven weeks age were anesthetized with pentobarbital (40 mg/kg), the spinal column was exposed, vertebral arch of the ninth thoracic vertebra was excised and the tenth thoracic cord (T10) was completely cut using a sharp knife. After the back muscle and the skin were satured, paralysis of hind limbs was confirmed to prepare spinal cord injury model rats.
For each of the groups administered with the compound 1 and PBS, the improvement in motor function of the spinal cord injury model rats during six weeks was evaluated every day according to a BBB scale (Basso D M, et al., J. Neurotrauma, 12:1-21 (1995)) (0 for immediately after the injury while 21 for non-injury). Incidentally, the test of significance was conducted by a two-way ANOV, Bonferroni test.

The subject of test [4] is chronic mild stress-induced depression model mice. Description: Tail suspension test in chronic mild stress-induced depression model mice. The settings on record: control 103.18±15.96 seconds. The procedure:
Female ddY strain mice of seven weeks age (n=8 to 12) were (A) subjected to forced swimming for 15 minutes and then to normal breeding for two clays, (B) subjected to breeding in an inclined cage for two days and then to normal breeding for one day, (C) subjected to breeding for one day where the floor mat was made wet and then to normal breeding for one day and (D) subjected to breeding for one day using a cage which was rotated at the rate of 180 rotations/minute and then to normal breeding for one clay. Further, (B) to (D) were repeated for two times and stress was loaded for three weeks in total to prepare chronic mild stress-induced depression model mice. During that time, the compound of the present invention dissolved in PBS or in a PBS solvent containing DMSO, etc. was orally administered once daily for three weeks and, after that, the suppressive effect for depressive symptom was evaluated by means of a tail suspension test. Thus, the area which was 1 cm from the tip of the tail of a mouse was grasped with hand and kept at the height of 10 cm from the floor, an observation was conducted for six minutes and the length of immobility time which is an index for the depressive symptom was measured. Incidentally, the test of significance was carried out by a one-way ANOVA, Tukey's Multiple Comparison Test.

In test [1] (1,500 μg/kg orally once daily for three weeks, control 61.76±2.01%), `CCCCCCC/C=C/C(=O)NCCN(C)C` [Compound 36, (E)-N-2-(dimethylamino)ethyl dec-2-enamide] had an alternating behavior rate of 71.52±2.50%. For `CCCCCCC/C=C/C(=O)OCCN(C)C` [Compound 1, (E)-2-(dimethylamino)ethyl dec-2-enoate], in test [2], the “immobility time upon forced swimming” value is recorded as “significantly shortened the immobility time”. Besides, in test [3], the “mean value of BBB scores±SE” value is listed as 11.60±2.2. Turning to `CCCCCCC/C=C/C(=O)OCCN(CC)CC` [Compound 6, (E)-2-(diethylamino)ethyl dec-2-enoate], in test [4] (1,500 orally once daily for three weeks), the “immobility time (tail suspension test)” value is 80.67 ± 23.94 s. The alternating behavior rate in test [1] (300 μg/kg orally once daily for three weeks, control 60.21±2.39%) is 75.40±3.22%. As for `CCCCCCC/C=C/C(=O)SCCN(C)C` [Compound 55, (E)-S-2-(dimethylamino)ethyl dec-2-enethioate], in test [4] (1,500 μg/kg orally once daily for three weeks), the “immobility time (tail suspension test)” value worked out at 63.72 ± 10.13 s.
